According to patent publication US12053451B2, “Arginase inhibitors and their therapeutic applications” (OncoArendi Therapeutics S.A., priority 2016, dated 2024):
Where a name gives a salt, the structure may show the parent alone.

Key:
[1] = target: T1, recombinant human arginase 2 (Homo sapiens, UniProt P78540); assay: Human arginase activity assay (urea measurement), arginase 2; assay type: biochemical; settings: for selected examples class estimated from % of inhibition at 1 μM and 100 μM, * = most potent diastereoisomer or mixture of diastereoisomers, read-out: Activity Class (ARG II)
T1 construct: made in house; host or cells: CHO
T1 sequence (P78540 23-354): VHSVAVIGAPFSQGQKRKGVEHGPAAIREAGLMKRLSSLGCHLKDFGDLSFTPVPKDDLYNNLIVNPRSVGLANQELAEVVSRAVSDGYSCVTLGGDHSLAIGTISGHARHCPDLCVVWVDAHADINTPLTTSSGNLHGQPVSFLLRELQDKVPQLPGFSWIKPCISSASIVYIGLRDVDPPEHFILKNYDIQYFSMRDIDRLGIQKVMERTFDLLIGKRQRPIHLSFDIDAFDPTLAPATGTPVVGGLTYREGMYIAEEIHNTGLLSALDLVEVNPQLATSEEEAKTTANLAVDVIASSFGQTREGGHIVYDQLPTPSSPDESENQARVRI
Procedure: (§1) Human Arginase Activity Assay
An enzymatic assay with recombinant human arginases 1 (Biolegend, Cat. No. 552502) and 2 (homemade in eukaryotic expression system of CHO, purified by FPLC) was used in order to assess inhibitory activity of the compounds. The assay was run in the 96-well plate format, each reaction in the total volume of 100 uL. The assay is based on urea measurement, which is a product of L-arginine enzymatic degradation. (Baggio et al. J Pharmacol. Exp. Ther. 1999, 290, 1409-1416). The color product is developed by adding a mixture of reagent A (4 mM oPA in 50 mM boric acid in 1M sulfuric acid, 0.03% Brij-35) and reagent B (4 mM NED in 50 mM boric acid in 1M sulfuric acid, 0.03% Brij-35) in equal proportions. The absorbance for each well was measured at 530 nm.
(§2) Briefly, to each well of a 96-well microtiter plate 40 μL of enzyme in the reaction assay buffer (pH 7.4, 100 mM sodium phosphate buffer, 130 mM NaCl, 1 mg/mL albumin), 50 μL of the test compound solution and 10 μL of enzyme substrate solution (L-arginine hydrochloride, natural pH 5.6, final concentration 20 mM and a cofactor—manganese chloride, final concentration 150 μM) was added. For positive control, only the enzyme and substrate were used, the negative controls contained substrate solution with assay buffer. After incubating the microtiter plate at 37° C. for 60 min 150 μL of mixed reagents A and B was added to each well to stop the reaction. Absorbance was measured (λ=530 nm) 20 minutes later, after color development. The urea production in the absence of any compound was considered the maximum arginase activity. The absorbance in the absence of arginase (background) was subtracted from all the values. The normalized OD was used to generate a concentration-response curve by plotting the percent of inhibition against log[concentration] of the compound and using regression analysis (GraphPad Prism 7.0) to compute the IC50 values.
(§3) For selected examples the activity class for ARG2 was estimated based on % of inhibition for 1 μM and 100 μM concentration of tested compounds.

[2] = target: T2, intracellular arginase in macrophages isolated from murine bone marrow (BMDM) (Mus musculus, UniProt Q61176); assay: Cell-based assay: intracellular arginase in bone marrow derived macrophages (BMDM), urea level; set-up: species or system Balb/c mice; settings: murine BMDM with M-CSF and IL-4, urea measured 24 hours after compound; * = most potent diastereoisomer or mixture of diastereoisomers; read-out: Activity Class (BMDM)
T2 construct: endogenous in cells; host or cells: primary bone marrow derived macrophages from Balb/c mice, M-CSF and IL-4 treated
T2 sequence (Q61176 1-323): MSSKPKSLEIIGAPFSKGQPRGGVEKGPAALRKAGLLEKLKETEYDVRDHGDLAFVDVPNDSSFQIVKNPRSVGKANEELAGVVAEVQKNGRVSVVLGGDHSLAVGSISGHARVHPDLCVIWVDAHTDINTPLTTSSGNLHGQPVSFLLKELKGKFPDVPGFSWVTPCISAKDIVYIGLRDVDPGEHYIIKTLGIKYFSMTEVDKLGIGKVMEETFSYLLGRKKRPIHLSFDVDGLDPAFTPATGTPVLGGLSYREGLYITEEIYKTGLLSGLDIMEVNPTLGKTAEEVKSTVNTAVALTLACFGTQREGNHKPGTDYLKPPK
Procedure: Efficacy of Selected Examples Towards Intracellular Arginase in Macrophages Isolated from Murine Bone Marrow—Bone Marrow Derived Macrophages (BMDM)
Materials & Methods: The assay was performed according to modified literature protocol modification (Pineda-Torra I et al., Methods Mol Biol. 2015; 1339:101-9. Mia S et al. Scand J Immunol. 2014 May; 79(5):305-14). The femurs and tibias were isolated from Balb/c mice. Bones were cleaned from all attached tissues by using sterile swab without affecting the bone structure. Bones were sterilized by immersion in 70% ethanol for 5 min and then rinsed in PBS. The sides of the bones were cut off and flush with cold sterile PBS by using 26-G needle S into a 50 mL sterile tube with a cell strainer (Falcon™, Cat. No. U00149), until bone cavity appeared white. Then the cells were centrifuged (5 min at 500×G, 4° C.), washed twice with PBS and counted. Cells were plated in Petri dish in density of 1×10^6/mL and cultured in DMEM (Gibco, Cat. No. 31331-029) with 10% FBS, 1% pen-strep and 50 ng/mL M-CSF (PeproTech, Cat. No. 315-02), (37° C., 5% CO2). After five days cells were subcultured into P96 plate (BD, Cat. No. 353072) in density of 64 000 cells/well in medium supplemented with 50 ng/mL M-CSF and 20 ng/mL IL-4 (Biomibo Cat. No. 214-1). One day later exemplary compounds (dissolved in PBS) were added in several different concentrations and 24 hours later the level of urea was measured in each well (Jung D et al., Clin Chem. 1975, 21(8):1136-40). The concentration of urea in the absence of any compound was considered as the maximum. The absorbance of cell culture media (background) was subtracted from all the values.
as §3

[3] = target: T3, recombinant human arginase 1 (Homo sapiens, UniProt P05089); assay: Human arginase activity assay (urea measurement), arginase 1; assay type: biochemical; settings: recombinant human arginase 1, pH 7.4, 37° C., 60 min; * = value for the most potent diastereoisomer or the mixture of diastereoisomers; read-out: Activity Class (ARG I)
T3 construct: purchased Biolegend 552502
T3 sequence (P05089 1-322): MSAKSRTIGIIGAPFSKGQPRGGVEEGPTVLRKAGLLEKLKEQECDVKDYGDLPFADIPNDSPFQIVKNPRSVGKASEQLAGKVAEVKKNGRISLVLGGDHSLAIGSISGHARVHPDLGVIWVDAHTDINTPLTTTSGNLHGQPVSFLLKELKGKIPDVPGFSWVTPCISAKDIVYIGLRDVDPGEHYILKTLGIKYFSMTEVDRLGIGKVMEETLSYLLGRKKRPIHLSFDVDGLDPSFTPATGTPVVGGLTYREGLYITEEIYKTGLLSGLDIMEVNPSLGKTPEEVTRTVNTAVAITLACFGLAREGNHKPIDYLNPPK
Procedure: as §1
The assay was run in the 96-well plate format, each reaction in the total volume of 100 uL. The assay is based on urea measurement, which is a product of L-arginine enzymatic degradation. […] The color product is developed by adding a mixture of reagent A (4 mM oPA in 50 mM boric acid in 1M sulfuric acid, 0.03% Brij-35) and reagent B (4 mM NED in 50 mM boric acid in 1M sulfuric acid, 0.03% Brij-35) in equal proportions. The absorbance for each well was measured at 530 nm.
as §2, with “For” for “Briefly, to each well of a 96-well microtiter plate 40 μL of enzyme in the reaction assay buffer (pH 7.4, 100 mM sodium phosphate buffer, 130 mM NaCl, 1 mg/mL albumin), 50 μL of the test compound solution and 10 μL of enzyme substrate solution (L-arginine hydrochloride, natural pH 5.6, final concentration 20 mM and a cofactor—manganese chloride, final concentration 150 μM) was added. For”

Row | SMILES | IC50 [1] [µM] | IC50 [2] [µM] | IC50 [3] [µM]
1 | NC1CC(CCB(O)O)CC1(N)C(=O)O (centres unmarked) [Example 62, 1,2-diamino-4-(2-boronoethyl)cyclopentanecarboxylic acid dihydrochloride] | 0.1 to 1 | 10 to 100 | 1 to 10
2 | CN(C)C[C@@H]1CC[C@@H](CCB2O[C@H]3C[C@H]4C[C@H](C4(C)C)[C@@]3(C)O2)C[C@]1(N)C(=O)O [Example 44, (1R,2S,5R)-1-amino-2-((dimethylamino)methyl)-5-(2-((3aR,4R,6R,7aS)-3a,5,5-trimethylhexahydro-4,6-methanobenzo[d][1,3,2]dioxaborol-2-yl)ethyl)cyclohexane-1-carboxylic acid dihydrochloride] | 0.001 to 0.1 | 0.001 to 0.1 | 0.001 to 0.1
3 | N[C@]1(C(=O)O)C[C@H](CCB(O)O)CC[C@H]1CN1CCCC1 (racemic) [Example 22, rac-(1R,2S,5R)-1-Amino-5-(2-boronoethyl)-2-(pyrrolidin-1-ylmethyl)-cyclohexane-1-carboxylic acid dihydrochloride] | 0.1 to 1 | 0.1 to 1 | 0.001 to 0.1
4 | NC1(C(=O)O)C[C@H](CCB(O)O)CCC1CCN1CCCC1 (stereo partly drawn) [Example 46, (5R)-1-amino-5-(2-boronoethyl)-2-(2-(pyrrolidin-1-yl)ethyl)cyclohexanecarboxylic acid dihydrochloride] | 0.001 to 0.1 | 0.1 to 1 | 0.001 to 0.1
5 | N[C@@](CCCCB(O)O)(C(=O)O)C1CCN(Cc2ccc(Cl)c(Cl)c2)CC1 [Comparative example 3, reference compound] | 0.1 to 1 | 1 to 10 | 0.001 to 0.1
6 | CC1(C)CCN(C[C@@H]2CC[C@@H](CCB(O)O)C[C@]2(N)C(=O)O)CC1 (racemic) [Example 26, rac-(1R,2S,5R)-1-amino-5-(2-boronoethyl)-2-((4,4-dimethylpiperidin-1-yl)methyl)cyclohexanecarboxylic acid dihydrochloride] | 0.1 to 1 | 1 to 10 | 0.1 to 1
7 | N[C@]1(C(=O)O)C[C@H](CCB(O)O)CC[C@H]1CN1C2CCC1CC2 (racemic) [Example 34, rac-(1R,2S,5R)-2-(7-azabicyclo[2.2.1]heptan-7-ylmethyl)-1-amino-5-(2-boronoethyl)cyclohexanecarboxylic acid dihydrochloride] |  | 0.1 to 1 | 0.001 to 0.1
8 | CN(Cc1ccc(Cl)c(Cl)c1)C[C@@H]1CC[C@@H](CCB(O)O)C[C@]1(N)C(=O)O (racemic) [Example 28, rac-(1R,2S,5R)-1-amino-5-(2-boronoethyl)-2-(((3,4-dichlorobenzyl)(methyl)amino)methyl)cyclohexanecarboxylic acid dihydrochloride] | 0.1 to 1 | 10 to 100 | 0.1 to 1
9 | CN(C)C[C@H]1CC[C@@H](CCB(O)O)C[C@]1(N)C(=O)O (racemic) [Example 18, rac-(1R,2R,5R)-1-Amino-5-(2-boronoethyl)-2-((dimethylamino)methyl)-cyclohexane-1-carboxylic acid dihydrochloride] | 1 to 10 | 0.1 to 1 | 0.1 to 1
10 | CC(C)N(C)C[C@@H]1CC[C@@H](CCB(O)O)C[C@]1(N)C(=O)O (racemic) [Example 32, rac-(1R,2S,5R)-1-amino-5-(2-boronoethyl)-2-((isopropyl(methyl)amino)methyl)cyclohexanecarboxylic acid] |  | 0.1 to 1 | 0.1 to 1

The next lines start with the values.

Row | IC50 [1] [µM] | IC50 [2] [µM] | IC50 [3] [µM] | SMILES
11 | 0.1 to 1 | 10 to 100 | 0.1 to 1 | NC1CCC(CCB(O)O)CC1(N)C(=O)O (single isomer, unassigned) [Example 48, 1,2-diamino-5-(2-boronoethyl)cyclohexanecarboxylic acid dihydrochloride]
12 | 0.1 to 1 | 0.001 to 0.1 | 0.001 to 0.1 | N[C@]1(C(=O)O)C[C@H](CCB(O)O)CC[C@H]1CN1CCCCC1 (racemic) [Example 31, rac-(1R,2S,5R)-1-amino-5-(2-boronoethyl)-2-(piperidin-1-ylmethyl)cyclohexanecarboxylic acid dihydrochloride]
13 |  | 10 to 100 | 1 to 10 | N[C@@]1(C(=O)O)CNC[C@@H](CCB(O)O)C1 (racemic) [Example 57, rac-(3R,5S)-3-amino-5-(2-boronoethyl)piperidine-3-carboxylic acid dihydrochloride]
14 |  | 0.1 to 1 | 0.001 to 0.1 | CC(C)(C)NC[C@@H]1CC[C@@H](CCB(O)O)C[C@]1(N)C(=O)O (racemic) [Example 33, rac-(1R,2S,5R)-1-amino-5-(2-boronoethyl)-2-((tert-butylamino)methyl)cyclohexanecarboxylic acid dihydrochloride]
